From EP0751930B1 (G.D. SEARLE & CO., priority 1994, dated 1995) come the findings set out here.

pIC50: −log10 of the molar value.

Assay [1] concerns the target T1, Rat brain constitutive nitric oxide synthase (rnNOS) (Rattus norvegicus, UniProt P29476).
T1 construct: prepared from an extract of rat cerebellum and partially purified by DEAE-Sepharose chromatography; from tissue; host or cells: rat cerebellum
In words: Citrulline Assay for Nitric Oxide Synthase (rnNOS). The assay is classed as biochemical. The following applies: for pIC50: conversion of [3H]-arginine to [3H]-citrulline, 30 µM L-arginine, 50 nM calmodulin added. The procedure:
(§1) Nitric oxide synthase activity was measured by monitoring the conversion of [^3H]-arginine to [^3H]-citrulline. Mouse inducible nitric oxide synthase (miNOS) was prepared from an extract of LPS-treated RAW 264.7 cells and partially purified by DEAE-Sepharose chromatography. Rat brain constitutive nitric oxide synthase (rnNOS) was prepared from an extract of rat cerebellum and partially purified by DEAE-Sepharose chromatography. Enzyme and inhibitors were incubated at 37°C for 15 minutes in a reaction volume of 100 µL with the following components added to start the reaction: 50 mM Tris (pH 7.6), 1 mg/ml bovine serum albumin, 1 mM DTT, 2 mM CaCl2, 10 µM FAD, 10 µM tetrahydrobiopterin, 30 µM L-arginine containing L-[2,3-^3H]-arginine at 300 cpm/pmole and 1 mM NADPH. For constitutive NOS, 50 nM calmodulin was also added. The reaction was terminated by addition of cold stop buffer containing 10 mM EGTA, 100 mM HEPES, pH 5.5 and 1 mM citrulline. [^3H]-Citrulline was separated by chromatography on Dowex 50W X-8 cation exchange resin and radioactivity determined with a liquid scintillation counter.

For assay [2], the target named is T2, Recombinant human inducible nitric oxide synthase (hiNOS) (Homo sapiens, UniProt P35228).
T2 construct: made in house; host or cells: Sf9 insect cells (recombinant baculovirus)
In words: Citrulline Assay for Nitric Oxide Synthase (hiNOS). The assay is classed as biochemical. The following applies: for pIC50: conversion of [3H]-arginine to [3H]-citrulline, 30 µM L-arginine, 37°C, 15 minutes. The protocol:
as §1
Recombinant human inducible nitric oxide synthase (hiNOS) was extracted from Sf9 insect cells (infected with recombinant baculoviruses encoding a cDNA for human inducible nitric oxide synthase which has been isolated and purified from a lambda Zapll cDNA library made from RNA isolated from a colon sample from a patient with ulcerative colitis) and partially purified by DEAE-chromatography.

Another assay concerns RAW 264.7 cells. Nature of the assay: Raw Cell Nitrite Assay. Conditions: Mus musculus, RAW264.7; for pIC50: nitrite production by intracellular iNOs, LPS-induced RAW 264.7 cells, L-arginine 30 µM. Type of assay: cell-based. The procedure:
RAW 264.7 cells are plated to confluency on a 96-well tissue culture plate grown overnight (17h) in the presence of LPS to induce NOS. A row of 3-6 wells were left untreated and served as controls for subtraction of nonspecific background. The media was removed from each well and the cells are washed twice with Krebs-Ringers-Hepes (25mM, pH 7.4) with 2 mg/ml glucose. The cells are then placed on ice and incubated with 50 µL of buffer containing L-arginine (30 µM) +/- inhibitors for lh. The assay is initiated by warming the plate to 37°C in a water bath for lh. Production of nitrite by intracellular iNOs is linear with time. To terminate the cellular assay, the plate of cells is placed on ice and the nitrite-containing buffer removed and analyzed for nitrite using a previously published fluorescent determination for nitrite. All values are the average of triplicate wells and are compared to a background-subtracted induced set of cells (100% value).

Assay [3] concerns the target T3, Mouse inducible nitric oxide synthase (miNOS) (Mus musculus, UniProt P29477).
T3 construct: prepared from an extract of LPS-treated RAW 264.7 cells and partially purified by DEAE-Sepharose chromatography; endogenous in cells; host or cells: LPS-treated RAW 264.7 cells
Nature of the assay: Citrulline Assay for Nitric Oxide Synthase (miNOS). Type of assay: biochemical. The following applies: for pIC50: conversion of [3H]-arginine to [3H]-citrulline, 30 µM L-arginine, 37°C, 15 minutes. The protocol:
as §1

T1 sequence (P29476 whole entry): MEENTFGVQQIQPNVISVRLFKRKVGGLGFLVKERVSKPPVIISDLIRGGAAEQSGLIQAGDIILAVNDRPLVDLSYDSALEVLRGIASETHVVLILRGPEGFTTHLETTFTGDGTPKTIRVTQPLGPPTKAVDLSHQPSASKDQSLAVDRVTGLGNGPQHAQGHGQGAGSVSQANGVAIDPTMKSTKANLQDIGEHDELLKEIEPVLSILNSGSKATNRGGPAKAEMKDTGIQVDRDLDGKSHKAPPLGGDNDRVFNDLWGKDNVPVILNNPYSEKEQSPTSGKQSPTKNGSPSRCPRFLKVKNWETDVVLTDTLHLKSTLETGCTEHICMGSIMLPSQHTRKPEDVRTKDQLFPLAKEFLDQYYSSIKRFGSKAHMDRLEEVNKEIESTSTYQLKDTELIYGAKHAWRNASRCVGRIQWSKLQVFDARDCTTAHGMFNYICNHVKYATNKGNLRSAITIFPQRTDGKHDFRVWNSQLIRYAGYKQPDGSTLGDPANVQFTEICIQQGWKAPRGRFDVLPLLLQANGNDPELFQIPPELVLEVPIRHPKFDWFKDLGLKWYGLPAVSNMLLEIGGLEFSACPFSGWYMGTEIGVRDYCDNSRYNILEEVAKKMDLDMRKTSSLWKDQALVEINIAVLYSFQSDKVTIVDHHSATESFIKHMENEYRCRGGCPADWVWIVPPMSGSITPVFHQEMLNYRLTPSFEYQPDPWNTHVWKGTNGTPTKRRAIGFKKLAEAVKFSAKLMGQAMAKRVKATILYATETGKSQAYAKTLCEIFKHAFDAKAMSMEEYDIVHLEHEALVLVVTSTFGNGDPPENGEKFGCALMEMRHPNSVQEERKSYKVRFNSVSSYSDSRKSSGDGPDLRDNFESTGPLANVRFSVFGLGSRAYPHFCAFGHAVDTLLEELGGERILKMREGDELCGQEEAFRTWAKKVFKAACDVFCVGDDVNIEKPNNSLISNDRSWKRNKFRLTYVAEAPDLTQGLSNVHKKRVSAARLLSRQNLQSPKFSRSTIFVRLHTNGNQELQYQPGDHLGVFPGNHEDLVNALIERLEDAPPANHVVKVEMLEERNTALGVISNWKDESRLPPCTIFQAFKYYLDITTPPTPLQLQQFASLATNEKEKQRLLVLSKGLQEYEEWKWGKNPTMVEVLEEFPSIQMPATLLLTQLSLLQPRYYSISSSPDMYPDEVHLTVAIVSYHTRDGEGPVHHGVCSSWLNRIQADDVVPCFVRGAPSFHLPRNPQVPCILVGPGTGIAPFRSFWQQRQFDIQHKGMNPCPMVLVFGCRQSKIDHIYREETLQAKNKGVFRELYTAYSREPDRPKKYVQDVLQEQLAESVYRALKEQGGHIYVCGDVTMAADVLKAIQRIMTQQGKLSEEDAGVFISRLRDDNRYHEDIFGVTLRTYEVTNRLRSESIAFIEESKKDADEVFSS
T3 sequence (P29477 whole entry): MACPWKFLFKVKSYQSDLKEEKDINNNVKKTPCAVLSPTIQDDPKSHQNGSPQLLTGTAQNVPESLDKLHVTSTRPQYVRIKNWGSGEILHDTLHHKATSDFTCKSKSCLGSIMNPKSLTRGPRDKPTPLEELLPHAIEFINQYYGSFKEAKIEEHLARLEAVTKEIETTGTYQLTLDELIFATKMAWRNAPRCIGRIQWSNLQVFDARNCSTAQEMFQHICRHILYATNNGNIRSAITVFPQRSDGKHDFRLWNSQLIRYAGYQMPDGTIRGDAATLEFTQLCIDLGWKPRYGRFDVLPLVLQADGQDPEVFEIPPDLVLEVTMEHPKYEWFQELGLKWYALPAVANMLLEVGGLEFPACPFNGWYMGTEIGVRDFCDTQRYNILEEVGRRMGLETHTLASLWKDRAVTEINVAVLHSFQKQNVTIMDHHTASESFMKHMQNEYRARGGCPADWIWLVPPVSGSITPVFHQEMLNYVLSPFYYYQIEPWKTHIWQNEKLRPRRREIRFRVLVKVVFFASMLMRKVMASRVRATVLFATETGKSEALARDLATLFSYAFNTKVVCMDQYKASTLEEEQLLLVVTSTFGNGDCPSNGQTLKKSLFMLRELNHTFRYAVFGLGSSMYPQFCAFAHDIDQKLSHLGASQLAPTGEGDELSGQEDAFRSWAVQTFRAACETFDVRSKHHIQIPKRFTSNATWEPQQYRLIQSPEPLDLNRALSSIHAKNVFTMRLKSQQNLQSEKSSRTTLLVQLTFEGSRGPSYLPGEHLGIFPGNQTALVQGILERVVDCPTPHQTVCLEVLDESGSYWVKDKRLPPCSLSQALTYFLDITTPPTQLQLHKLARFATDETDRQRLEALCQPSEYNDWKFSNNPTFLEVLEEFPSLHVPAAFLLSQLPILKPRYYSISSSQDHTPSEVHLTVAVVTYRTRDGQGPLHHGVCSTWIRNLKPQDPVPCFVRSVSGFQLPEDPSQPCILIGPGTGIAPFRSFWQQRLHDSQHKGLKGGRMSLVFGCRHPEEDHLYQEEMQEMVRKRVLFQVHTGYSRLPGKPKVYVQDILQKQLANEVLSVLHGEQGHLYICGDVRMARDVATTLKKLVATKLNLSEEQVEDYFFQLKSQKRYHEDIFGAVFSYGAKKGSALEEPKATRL

With `CC(=N)NCC[Se]CC(N)C(=O)O` (racemic) [Example 3, Nε-iminoethyl-aminoethylselenocysteine], the pIC50 in assay [1] is 3.64; in assay [2], 4.45; in the assay on RAW 264.7 cells, 6.43; in assay [3], 5.30.

For the compound `CC(=N)NCCCC(C)(N)C(=O)O` (stereo not shown) [Example 1], the negative-log IC50 (pIC50) in assay [1] was 3.45; in assay [2], 4.13; with RAW 264.7 cells it was 4.60; in assay [3] it was 4.46.

Take `CC(=N)NCCCCC(C)(N)C(=O)O` (racemic) [Example 2]: the negative logarithm of the IC50 (pIC50) is 3.71 in assay [1], 4.58 in assay [2], 4.28 in the assay on RAW 264.7 cells and 5.14 in assay [3].

On to `CC(=N)NCCCCC(N)(CO)C(=O)O` (racemic) [Example 4], for which the inhibition at 10 µM in assay [1] (@ 10 µM, read-out: rnNOS Inh.) was 8.6%; in assay [2] (@ 10 µM, read-out: hiNos Inh.), 39%; in the assay with RAW 264.7 cells (@ 10 µM, read-out: Raw Cell Inh.) it was 8.6%; in assay [3] (@ 10 µM, read-out: miNOS Inh.), 39%.
